Values joined by “and” are separate entries in the source; they are usually repeats but may differ in a detail not shown here. Equal values may be shown once. Read-outs that look alike come from different tables or passages of the source. Square brackets hold non-standard residues; d marks the D form. Ends that are not written are not given here. Peptide text beside a SMILES is read from it. pY = N[C@@H](Cc1ccc(OP(=O)(O)O)cc1)C(=O)O
Columns and labels:
[1] = molecular target: T1, RasGAP^232 (p120RasGAP N-SH2, SH3, C-SH2, residues 174–444) (Homo sapiens, UniProt P20936, C236S/C261S/C372S/C402S); assay: Isothermal titration calorimetry, WT RasGAP^232 with phosphopeptides; type: binding
T1 construct: (residues 174–444, termed RasGAP^232); hexahistidine (TEV-cleavable) (N, cleaved yes); made in house; host or cells: E. coli Rosetta (DE3)
T1 sequence (P20936 174-444 C236S/C261S/C372S/C402S): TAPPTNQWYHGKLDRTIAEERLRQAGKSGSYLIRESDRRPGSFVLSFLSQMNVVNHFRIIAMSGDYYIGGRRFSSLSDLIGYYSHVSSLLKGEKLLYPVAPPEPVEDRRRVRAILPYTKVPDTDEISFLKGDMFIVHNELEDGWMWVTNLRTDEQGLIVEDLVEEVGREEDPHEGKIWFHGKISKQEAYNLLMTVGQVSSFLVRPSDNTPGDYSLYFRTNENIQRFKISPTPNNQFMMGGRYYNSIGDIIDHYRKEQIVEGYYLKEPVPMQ
Method: (§1) We expressed and purified the region of RasGAP encompassing both SH2 domains with a construct that includes the N-SH2, SH3, and C-SH2 domains (residues 174–444, termed RasGAP^232 ([50])) (Figs. 1A and S2A). Separately, we synthesized peptides containing both phosphotyrosine residues for EphB4 and Dok1 (Fig. 1C). Our previous isothermal titration calorimetry (ITC) study assessed the affinity of RasGAP^232 for doubly phosphorylated p190RhoGAP-A peptide and found a Kd of 10 ± 6 nM for tandem engagement of both phosphotyrosines by both SH2 domains ([50]).
Synthetic peptides were purchased from GenScript and contain N-terminal acetylation and C-terminal amidation for stability. The doubly phosphorylated EphB4 peptide (UniProt ID P54760) used in ITC and SAXS experiments contains residues 586 to 602 (GTKV[pTyr]IDPFT[pTyr]EDPNEA). The singly phosphorylated EphB4 peptides pY590 and pY596 used in ITC experiments contain the residues 586 to 595 (GTKV[pTyr]IDPFT) and residues 592 to 602 (DPFT[pTyr]EDPNE), respectively. The p190RhoGAP peptide (UniProt ID Q9NRY4) used in SAXS experiments contains the residues 1083 to 1111 (SD[pTyr]AEPMDAVVKPRNEEENI[pTyr]SVPH). The Dok1 peptide (UniProt ID Q99704) used in ITC and SAXS experiments contains the residues 291 to 322 (SPPAL[pTyr]AEPLDSLRIAPCPSQDSL[pTyr]SDPLDST). Lyophilized peptides were reconstituted in water, and less soluble peptides (pYpYEphB4 and pY590) were spiked with 20 mM Tris pH 8 or 10 mM NaOH to increase solubility. Concentrations of stock peptides are as follows: pYpY190 stock concentration is 10 mM; pYpYEphB4 stock concentration is 2.5 mM; Dok1 stock concentration is 5.5 mM; pY596 stock concentration is 10 mM; and pY590 stock concentration is 8 mM.
Purified RasGAP^232 protein and solubilized peptides were dialyzed overnight against buffer containing 20 mM Tris pH 8, 250 mM NaCl in Slide-A-Lyzer 3 ml 10 kDa molecular weight cut off cassettes (Spectra-Por) and Micro Float-A-Lyzer 0.1 to 0.2 ml, 0.1 to […] molecular weight cut off devices (Spectra-Por), respectively. Protein and peptide concentrations were determined by A280 measured on a Nanodrop Lite (Thermo Fisher Scientific) instrument using extinction coefficients of 45,840 M^−1 cm^−1 for RasGAP^232 (and mutants), 917 M^−1 cm^−1 for the doubly phosphorylated EphB4 peptide, and 458.5 M^−1 cm^−1 for the singly phosphorylated EphB4 peptides as determined by ([74]). Dok1 peptide concentration was confirmed using Amino Acid Analysis performed at UC Davis Molecular Structure Facility. Samples were centrifuged for 10 min at 4 °C and degassed for 7 min using a Degassing Station (TA Instruments). ITC experiments were performed on a Nano ITC (TA Instruments) by loading protein into the 190 μl sample cell and titrating 20 times with 2.5 μl peptide in the titration syringe. Concentrations for sample cell and syringe for each trial are included in Table S1. The data were analyzed in NanoAnalyze software (TA Instrument) using blank (constant) and independent models (https://www.tainstruments.com/itcrun-dscrun-nanoanalyze-software/).

[2] = molecular target: T1, RasGAP^232 (p120RasGAP N-SH2, SH3, C-SH2, residues 174–444); settings: ref ([50]), cited from earlier work
Text: as §1, with “Table 1 Isothermal titration calorimetry measurements for p120RasGAP with phosphotyrosine-containing binding partners | column: Kd (μM); n; ΔH (kJ/mol); ΔS (J/mol∗K) || We” for “We”, “([50]). In our current study, titration of the dou ...” for “([50]).”

[3] = ITC, average of trials (Table S1)

In the case of `CC[C@H](C)[C@H](NC(=O)[C@H](CCCNC(=N)N)NC(=O)[C@H](CC(C)C)NC(=O)[C@H](CO)NC(=O)[C@H](CC(=O)O)NC(=O)[C@H](CC(C)C)NC(=O)[C@@H]1CCCN1C(=O)[C@H](CCC(=O)O)NC(=O)[C@H](C)NC(=O)[C@H](Cc1ccc(OP(=O)(O)O)cc1)NC(=O)[C@H](CC(C)C)NC(=O)[C@H](C)NC(=O)[C@@H]1CCCN1C(=O)[C@@H]1CCCN1C(=O)[C@H](CO)NC(C)=O)C(=O)N[C@@H](C)C(=O)N1CCC[C@H]1C(=O)N[C@@H](CS)C(=O)N1CCC[C@H]1C(=O)N[C@@H](CO)C(=O)N[C@@H](CCC(N)=O)C(=O)N[C@@H](CC(=O)O)C(=O)N[C@@H](CO)C(=O)N[C@@H](CC(C)C)C(=O)N[C@@H](Cc1ccc(OP(=O)(O)O)cc1)C(=O)N[C@@H](CO)C(=O)N[C@@H](CC(=O)O)C(=O)N1CCC[C@H]1C(=O)N[C@@H](CC(C)C)C(=O)N[C@@H](CC(=O)O)C(=O)N[C@@H](CO)C(=O)N[C@H](C(N)=O)[C@@H](C)O` [pYpY Dok1] (Ac-SPPAL[pY]AEPLDSLRIAPCPSQDSL[pY]SDPLDST-NH2), the n ([1]; ITC stoichiometry, mean ± SD of trials) is reported as 0.8 ± 0.1, the Kd ([1]; ITC, 20 mM Tris pH 8, 250 mM NaCl, independent model, mean ± SD of trials (n = 4 EphB4, n = 3 Dok1)) is reported as 0.03 ± 0.02 µM and the “-T∆S” value [1, 3] is reported as 8.37 kcal/mol. The Ka [1, 3] was 40 µM⁻¹, the “∆G” value [1, 3] was -10.3 kcal/mol and the ΔH ([1]; ITC, mean ± SD of trials) was -18.6 kcal/mol and -18.6 ± 0.72 kcal/mol. For the same compound, the ΔS ([1]; ITC, mean ± SD of trials) was -120 J/mol∗K and −120 ± 14 J/mol∗K, the “-T∆S” value ([1]; trial 1, ITC) was 7.17 kcal/mol and the Ka ([1]; trial 1, ITC) was 63 µM⁻¹. The “∆G” value ([1]; trial 1, ITC) was -10.5 kcal/mol, the “∆H” value ([1]; trial 1, ITC) was -17.9 kcal/mol and the “∆S” value ([1]; trial 1, ITC) was -102 J/mol*K. The “-T∆S” value ([1]; trial 2, ITC) was 9.32 kcal/mol, the Ka ([1]; trial 2, ITC) was 21 µM⁻¹ and the “∆G” value ([1]; trial 2, ITC) was -10 kcal/mol. The “∆H” value ([1]; trial 2, ITC) was -19.4 kcal/mol, the “∆S” value ([1]; trial 2, ITC) was -131 J/mol*K and the “-T∆S” value ([1]; trial 3, ITC) was 8.37 kcal/mol. For the same compound, the Ka ([1]; trial 3, ITC) was 43 µM⁻¹, the “∆G” value ([1]; trial 3, ITC) was -10.5 kcal/mol and the “∆H” value ([1]; trial 3, ITC) was -18.6 kcal/mol. For the same compound, the “∆S” value ([1]; trial 3, ITC) was -116 J/mol*K.

For “SD[pY]AEPMDAVVKPRNEEENI[pY]SVPH [pYpY p190RhoGAP-A, Doubly phosphorylated p190RhoGAP-A peptide (pY1087, pY1105)]”, the “affinity tighter than individual SH2–phosphotyrosine interactions” value ([1]; ITC Kd, compared with individual SH2 interactions (Table 1, ref [60])) is given as 15- to 30 fold, the n ([2]; ITC stoichiometry) is given as 0.6 ± 0.1 and the Kd ([2]; ITC) is given as 0.01 ± 0.006 µM. For the same compound, the ΔH ([2]; ITC) was -31.1 ± 4.78 kcal/mol and the ΔS ([2]; ITC) was −281 ± 77 J/mol∗K.
